Measurements as given in US6140336A, “Spiro[2H-1-benzopyran-2,4'-piperidine]-4(3H)-one derivatives, acid addition salts thereof and pharmaceutical compositions containing them” (Richter Gedeon Vegyeszeti Gyar Rt., priority 1996, dated 2000).
Structures can show the parent of a compound that is named as a salt. Where two headings read alike, the source gives them in different places.

Key:
[1] = assay type: in vivo, rats; settings: for ED50: i.v.
Method: These experiments were carried out on rats (with a body weight of 180-200 g) anaesthetized by urethane (1.25 g/kg i.p.) in such a way that 50 μg/kg of aconitine [chemically acetyl benzoyl aconine] was injected to the tail vein then, the arrhythmic disturbances were observed on ERG II lead after 5 minutes [J. Med. Exp. 10, 93 (1964)].
The compounds to be tested for antiarrhythmic effect were intravenously (i.v.) administered 2 minutes, or orally one hour before aconitine.
The aconitine arrhythmia was evaluated in such a manner that the severity of arrhythmia was characterized by an increasing number and, after average calculation both in the control as well as in the tested group, the average of treated group was expressed as percentage of the control. The arrhythmia was characterized by the following scores: […]

[2] = Diazepam (DIA) induced anterograde amnesia, passive avoidance test; assay type: in vivo, NMRI mice; settings: for protection against the amnesic effect of diazepam, lower versus higher dose: 0.1 mg/kg and 10 mg/kg p.o.; for inhibition in vivo at 0.1 mg/kg / inhibition in vivo at 10 mg/kg: Mus musculus, po, 1 h, read-out: Prevention %; for significantly antagonized the amnesic effect of diazepam (percentage): Table 1, p.o.; for antiamnesic effect (overall): overall conclusion from the amnesia tests
Description: (§1) The biological activity of the compounds of formulas (I) and (Ia) was studied by using passive avoidance test. This test is one of the most widely used animal experimental model for investigating the effects of substances on the cognitive functions (learning and memory processes). This is based on inhibition of the genetically determined behavior of rodents (mice and rats) that they prefer dark space to light one. A single electric shock given in the dark box is employed as a memory trace, the retention and retrieval of which can be controlled after a shorter or longer period.
The passive avoidance test was carried out on NMRI mice with a body weight of 25-28 g. During the learning, preselected animals (mice entering into a dark space from an illuminated space within 30 s) were placed into an illuminated space. After entering into the dark space, the animal received within 30 s onto his paw an electric shock (1 mA for 3 s) causing an unpleasant sensation. The time of entry into the dark space (latency period) was measured. During the check, after 24 hours, the animals were again put back to the illuminated space and the time elapsed until entry into the dark space (retention time) was measured (limit time=300 s). The animals were intraperitoneally (i.p.) treated with 3 mg/kg of diazepam (chemically, 7-chloro-1,3-dihydro-1-methyl-5-phenyl-2H-1,4-benzodiazepin-2-one) 30 minutes before learning in order to induce anterograde amnesia. The compounds were orally (p.o.) administered in doses of 0.1 or 10 mg/kg, respectively one hour before the learning. The protective effect was calculated percentage value (P%) by using the following formula: [formula]
(§2) In the above formula, T means the measured retention time of animals treated as shown in the index or the measured retention time of untreated animals, respectively.

[3] = Electroshock (ECS) induced retrograde amnesia, passive avoidance test; assay type: in vivo, NMRI mice; settings: for Prevention %: 2 hours after learning
Description: as §1
In this test, the retrograde amnesia was induced on NMRI mice having a body weight of 24-26 g by using an auricular electroshock treatment of 20 mA for 0.2 s at one hour following the learning. The compounds to be tested were administered 2 hours after learning. The protective effect was calculated as percentage value (p%D) by using the following formula: [formula]
P%=Ttreated+ECS -Tplacebo+ECS /Tplacebo -Tplacebo+ECS
as §2

[4] = Stability of hydrogen maleate salt versus free base; assay type: physicochemical
[5] = Normobaric hypoxia-induced memory deficiency model on rats; assay type: in vivo; settings: 10 mg/kg oral
Method: (§3) Compound 4610351 has been investigated in detail both under in vitro and in vivo conditions. This compound evened 36% protection in an oral dose of 10 mg/kg in the normobaric hypoxia-induced memory deficiency model on rats; this surpassed the protective effect of 21% provided by 10 mg/kg oral dose of vinpocetine. […] On the basis of these investigations, compounds of formulas (I) and (Ia) can be utilized for the treatment of diseases and dementias accompanied by the impairment of cognitive processes (learning, memory), such as multiinfarct and Alzeimer type dementias, states following stroke, ischaemic injuries, sequels of trauma of the central nervous system, parkinsonism, Huntington's chorea or multiple sclerosis. The therapeutical doses of compounds of formulas (I) and (Ia) can range between 0.1 and 40 mg/kg of body weight given orally, daily once or several times.

[6] = test system: neuronal calcium uptake (veratrine-induced); assay: Veratrine-induced 45Ca uptake by synaptosome preparation; assay type: biochemical
Method: as §3

[7] = test system: neuronal calcium uptake (K^+ -induced); assay: K+ -induced 45Ca uptake by synaptosome preparation; assay type: biochemical
Method: as §3

[8] = 30 mg/kg p.o., one hour before aconitine
[9] = 0.1 mg/kg p.o., one hour before learning, diazepam 3 mg/kg i.p., * = p < 0.05 vs diazepam control
[10] = 10 mg/kg p.o., one hour before learning, diazepam 3 mg/kg i.p., * = p < 0.05 vs diazepam control
[11] = 10 mg/kg p.o., * marks significance

Compound | Inhibition (%) ([1]; 10 mg/kg i.v.) | Inhibition (%) ([1]; 30 mg/kg i.v.) | Inhibition (%) [1, 8] [%] | inhibition in vivo at 0.1 mg/kg [2, 9] [%] | inhibition in vivo at 10 mg/kg [2, 10] [%] | significantly antagonized the amnesic effect of diazepam (percentage) [2] | antiamnesic effect (overall) [2] | further results
CC(C)(C)c1ccc(CN2CCC3(CC2)CC(=O)c2ccccc2O3)cc1 [Compound 4611266, 1'-(4-tert-butylbenzyl)-spiro[2H-1-benzopyran-2,4'-piperidine]-4(3H)-one] | 21 | 3 | 0 | 159 | 105 | 105-176% | significant antiamnesic effect | protection against the amnesic effect of diazepam, lower versus higher dose [2]: nearly the same protection
C=C[C@H]1C[N@@]2CC[C@H]1C[C@@H]2[C@@H](O)c1ccnc2ccc(OC)cc12 [Quinidine, (S)-(6-methoxy-4-quinolinyl)-[(2R.4S.5R)-5-vinyl-2-quinuclidinyl]methanol] | 55 | 83 |  |  |  |  |  | Inhibition (%) ([1]; 0.3 mg/kg i.v.): 34%; ED50 [1]: 6.66 mg/kg
O=C1CC2(CC[N+](Cc3ccc([N+](=O)[O-])cc3)(Cc3ccc([N+](=O)[O-])cc3)CC2)Oc2ccccc21 [Compound 4611265] | 21 | 10 | 0 |  |  | 105-176% | significant antiamnesic effect | protection against the amnesic effect of diazepam, lower versus higher dose [2]: nearly the same protection; inhibition in vivo at 0.1 mg/kg [2]: 86%; inhibition in vivo at 10 mg/kg [2]: 134%
O=C1CC2(CCN(Cc3ccc(F)cc3)CC2)Oc2ccccc21 [Compound 4610282] |  |  |  | 131 | 24 | 105-176% | significant antiamnesic effect | protection in ECS-induced retrograde amnesia ([3]; 0.1 mg/kg (as printed in text)): 77%; Prevention % ([3]; 1 mg/kg p.o.): 77%; Prevention % [3, 11]: 29%
O=C1CC2(CCN(Cc3ccccc3)CC2)Oc2ccccc21 [Compound 4600592, 1'-Benzylspiro[2H-1-benzopyran-2,4'-piperidine]-4(3H)-one] | 3 | 19 | 0 | 144 | 92 | 105-176% |  | Prevention % ([3]; 1 mg/kg p.o.): 48%; Prevention % [3, 11]: 44%; protection in ECS-induced retrograde amnesia ([3]; mouse, in vivo): No considerable protection
CCCCc1oc2ccccc2c1C(=O)c1cc(I)c(OCCN(CC)CC)c(I)c1 [Amiodarone] | 70 |  |  |  |  |  |  | Inhibition (%) ([1]; 3.0 mg/kg i.v.): 13%; Inhibition (%) ([1]; 5.0 mg/kg i.v.): 29%; ED50 [1]: 7.04 mg/kg
NC(=O)[C@@H]1CCCN1C(=O)[C@H](Cc1c[nH]cn1)NC(=O)[C@@H]1CCC(=O)N1 [TRH, 5-oxo-L-prolyl-L-histidyl-L-proline amide, reference compound] |  |  |  |  |  |  |  | Prevention % ([3]; 1 mg/kg i.p.): 77%; Prevention % ([3]; 10 mg/kg i.p.): 35%
O=C1CC2(CCN(Cc3ccccc3)CC2)Oc2ccccc21 |  |  |  |  |  |  |  | stability over the free base form [4]: higher stability
O=C1CC2(CCN(Cc3ccc([N+](=O)[O-])cc3)CC2)Oc2ccccc21 [Compound 4610350] |  |  |  | 170 | 29 | 105-176% | significant antiamnesic effect | antiamnesic action in lower doses ([2]; 0.1 mg/kg p.o.): showed an antiamnesic action; antiamnesic action in higher doses ([2]; 10 mg/kg p.o.): inactive; Prevention % ([3]; 1 mg/kg p.o.): 0%; Prevention % [3, 11]: 8%
O=C1CC2(CCN(Cc3ccc(Cl)cc3)CC2)Oc2ccccc21 [Compound 4610351] | 16 | 16 | 5 | 78 | 176 | 105-176% | significant antiamnesic effect | protection, normobaric hypoxia-induced memory deficiency [5]: 36%; IC50 [6]: 4.5 µM; Prevention % ([3]; 1 mg/kg p.o.): 81%; Prevention % [3, 11]: 108%; reversal of ECS-caused amnesia ([3]; both doses): could significantly reverse the ECS-caused amnesia in both doses; reversal of ECS-caused amnesia ([3]; higher dose): 108%; IC50 [7]: 45.6 µM
CCOC(=O)C1=C[C@]2(CC)CCCN3CCc4c(n1c1ccccc41)[C@@H]32 [Vinpocetine, ethyl apovincaminate, reference compound] |  |  |  | 0 | 123 |  |  | protection, normobaric hypoxia-induced memory deficiency [5]: 21%
CCN1C[C@H]2CN(C)C[C@@H](C1)C2OC(=O)c1ccc(Cl)cc1 (stereo partly drawn) [Bisaramil, 3-methyl-7-ethyl-9α-(4-chlorobenzoyloxy)-3,7-diazabicyclo[3.3.1]nonane hydrochloride] |  |  |  |  |  |  |  | Inhibition (%) ([1]; 0.3 mg/kg i.v.): 20%; Inhibition (%) ([1]; 0.5 mg/kg i.v.): 48%; Inhibition (%) ([1]; 1.0 mg/kg i.v.): 91%; ED50 [1]: 0.49 mg/kg
Cc1cccc(C)c1OCC(C)N (stereo not shown) [Mexiletine, 1-methyl-2-(2,6-xylyloxy)ethylamine] | 62 |  |  |  |  |  |  | Inhibition (%) ([1]; 1.0 mg/kg i.v.): 29%; Inhibition (%) ([1]; 3.0 mg/kg i.v.): 68%; ED50 [1]: 2.51 mg/kg
O=C1CC2(CCN(Cc3ccc(Br)cc3)CC2)Oc2ccccc21 [Compound 4611109] |  |  |  | 92 | 0 |  |  | antiamnesic action in lower doses ([2]; 0.1 mg/kg p.o.): showed an antiamnesic action; antiamnesic action in higher doses ([2]; 10 mg/kg p.o.): inactive
O=C1CC2(CC[N+](Cc3ccccc3)(Cc3ccccc3)CC2)Oc2ccccc21 [Compound 4611267, 1',1'-dibenzyl-spiro[2H-4(3H)-oxo-1-benzopyran-2,4'-piperidinium]hydrochloride] | 0 | 29 | 0 | 47 | 67 |  |  | 
